The text below walks through data of paper PMC9392260 (Journal of Inflammation Research, 2022).

What all share (type): biochemical
One assay concerns the target ACE2 (Homo sapiens, UniProt Q9BYF1). Description: fluorescent ACE2 inhibitor screening kit.
Assay [1] deals with T1, COX-2 (Homo sapiens, UniProt P35354).
T1 sequence (P35354 18-604): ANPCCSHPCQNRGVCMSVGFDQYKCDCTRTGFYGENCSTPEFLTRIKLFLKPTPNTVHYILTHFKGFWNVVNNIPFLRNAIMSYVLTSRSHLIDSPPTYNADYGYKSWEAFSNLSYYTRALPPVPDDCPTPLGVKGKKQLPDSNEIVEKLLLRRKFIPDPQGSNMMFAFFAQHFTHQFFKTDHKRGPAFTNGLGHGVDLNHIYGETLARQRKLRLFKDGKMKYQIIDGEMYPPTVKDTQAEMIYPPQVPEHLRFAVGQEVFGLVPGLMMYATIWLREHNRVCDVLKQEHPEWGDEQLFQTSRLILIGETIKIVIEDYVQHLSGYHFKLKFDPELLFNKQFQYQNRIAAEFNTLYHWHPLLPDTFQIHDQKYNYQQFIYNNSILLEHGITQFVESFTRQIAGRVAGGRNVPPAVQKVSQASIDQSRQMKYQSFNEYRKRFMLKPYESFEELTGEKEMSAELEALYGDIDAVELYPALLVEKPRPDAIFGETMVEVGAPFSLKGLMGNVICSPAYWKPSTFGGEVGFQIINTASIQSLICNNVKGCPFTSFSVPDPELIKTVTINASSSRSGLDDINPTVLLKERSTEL
Description: fluorescent COX-2 inhibitor screening kit.

The target in assay [2] is T1, COX-2. Description: fluorescent COX-2 inhibitor screening kit. This is another data set of the same source.

Like-named read-outs stand apart in the source and are kept apart here.

Sequence of ACE2 (Q9BYF1 18-805): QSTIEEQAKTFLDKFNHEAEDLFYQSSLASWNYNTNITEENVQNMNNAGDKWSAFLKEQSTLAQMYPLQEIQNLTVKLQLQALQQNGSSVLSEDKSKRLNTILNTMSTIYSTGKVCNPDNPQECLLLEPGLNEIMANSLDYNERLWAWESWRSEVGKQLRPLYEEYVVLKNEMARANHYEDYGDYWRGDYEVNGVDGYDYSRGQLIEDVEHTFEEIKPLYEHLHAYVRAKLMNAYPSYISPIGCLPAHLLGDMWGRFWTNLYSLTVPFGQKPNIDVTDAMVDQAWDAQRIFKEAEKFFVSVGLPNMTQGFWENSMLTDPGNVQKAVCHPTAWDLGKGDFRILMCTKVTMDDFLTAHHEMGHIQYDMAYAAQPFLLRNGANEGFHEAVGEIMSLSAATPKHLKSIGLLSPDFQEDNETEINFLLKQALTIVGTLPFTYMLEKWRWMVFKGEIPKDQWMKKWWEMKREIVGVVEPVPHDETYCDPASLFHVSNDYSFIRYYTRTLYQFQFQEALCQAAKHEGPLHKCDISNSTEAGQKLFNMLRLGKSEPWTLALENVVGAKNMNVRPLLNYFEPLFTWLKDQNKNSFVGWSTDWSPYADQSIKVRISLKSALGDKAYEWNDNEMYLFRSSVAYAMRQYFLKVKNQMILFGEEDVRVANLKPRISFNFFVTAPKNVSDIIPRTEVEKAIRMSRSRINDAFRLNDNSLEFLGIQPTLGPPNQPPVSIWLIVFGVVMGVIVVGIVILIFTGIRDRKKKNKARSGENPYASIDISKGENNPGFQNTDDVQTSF

Consider `O=c1c(O[C@@H]2O[C@H](CO)[C@@H](O)[C@H](O)[C@H]2O)c(-c2ccc(O)c(O)c2)oc2cc(O)cc(O)c12` [compound 5, Quercetin 3-O-glucoside], for which the IC50 (usually the concentration at which inhibition is half-maximal) on ACE2 was determined as 135 ± 6.54 µM.
On COX-2 [1], `O=c1c(O)c(-c2ccc(O)cc2)oc2cc(O)cc(O)c12` [compound 11, Kaempferol] displayed an IC50 of 360 ± 20 nM.
For the compound `COc1cc([C@@H]2c3cc4c(cc3[C@H](O)[C@H]3COC(=O)[C@H]23)OCO4)cc(OC)c1OC` [compound 12, Podophyllotoxin], half-maximal inhibition against COX-2 [2] (IC50) was put at 10.5 ± 0.61 µM.
